Reference: patent US20120015925A1, “NOVEL BENZOTHIAZEPINE AND BENZOTHIEPINE COMPOUNDS” (ASAHI KASEI PHARMA CORPORATION, priority 2004, published 2012)

Key:
[1] = system: rats fed cholesterol food; assay: Model for hepatic disorder associated with cholestasis (hepatic cell apoptosis): mitotic cells in liver; assay type: in vivo, rat; conditions: oral twice per day, 4 days, total in 10 sites of 200 μm×200 μm, control group 50 ± 13
Source text: In the present test example, a model for the hepatic disorder associated with cholestasis was employed with reference to apoptosis induction in hepatic cells in a hypercholesterolemia model described in Am. J. Physiol., 1995, 268, G613-G621.
That is, the food containing 0.4% cholesterol and 0.5% bile acid was given to SD (IGS) strain male rats at 7 to 9 weeks of age for 4 days, and the test compound was orally administered forcibly twice per day everyday from the starting date of cholesterol food feeding (each n=8). As a control, another group (n=8) were merely fed cholesterol food. The blood was exsanguinated from abdominal aorta 3 hours after the drug administration on the final day of the experiment. Then the liver was immediately removed and fixed in 10% neutral buffered formalin solution (brand name: FA-F96, supplied from Kokusan Chemical Co. Ltd.). After fixing, the sample was dehydrated and embedded using a closed type automatic embedding apparatus (brand name: ETP-180B, supplied from Sakura Finetek Japan). […] A total number of mitotic cells in different 10 sites in the range of 200 μm×200 μm on each section was counted.

rats dosed bile acid = assay: Model for hepatic disorder associated with cholestasis, Protocol B (bile acid without partial ligation): AST, ALT, ALP; assay type: in vivo, rat; conditions: Table 13, Protocol B, 0.1 mg/kg oral twice per day for 3.5 days, N=8, mean±standard error
Source text: In the present Test Example, a model for the hepatic disorder caused by partial ligation of the bile duct was employed with reference to Kanno's method (Liver, 43, Suppl(1):A126, 2002).
That is, to the SD (IGS) strain male rats at 7 to 10 weeks of age, the partial ligation of the bile duct was given with opening the abdominal cavity under anesthesia with pentobarbital. Before the operation, the blood was collected from femoral vein, in order to obtain the value before the administration. From the day after the operation, 200 mg/kg of bile acid and the test compound were orally administered forcibly twice per day for 3.5 days (Protocol A). Without giving the partial ligation of the bile duct, 200 mg/kg of bile acid and the test compound were also orally administered forcibly twice per day for 3.5 days (Protocol B). In both cases, the test compound was dissolved or suspended in distilled water or an aqueous solution of 1% HCO 60 (Nippon Chemicals). To the control group, saline was administered. As comparative examples, 25 mg/kg of cholestyramine (supplied from Sigma) or 50 mg/kg of ursodeoxycholic acid (supplied from Mitsubishi Pharma) was administered. For considering the effect of the operation, sham operation (sham group) was performed in some cases. The blood was collected from the abdominal aorta 6 hours after the drug administration on the final day of the experiment. AST (GOT), ALT (GPT) and ALP in the blood were measured using measurement kits (GOT II-HA Test Wako, GPT II-HA Test Wako and Alkaline Phosphor HA Test Wako, all were supplied from Wako Pure Chemical Industries) and using an automatic analyzer (Nitech ANALAYZER SUPER Z818).

ALANINE TRANSPORTER = assay: In vitro assay using Cos 7 cells for Na+ dependent amino acid transporter ([3H]-alanine uptake); assay type: cell-based; conditions: [3H]-alanine 8 μM, 37° C., 60 minutes, read-out: IC50 (μM) AGAINST ALANINE TRANSPORTER
Procedure: In the present Test Example, in vitro assays of the compounds using Cos 7 cells for various transporters were performed according to the description in JP-H10-505830 A.
That is, 2.5×10^5 cells/well of Cos 7 cells were seeded in a 24-well plate, and after two days, the cells were washed once with the assay buffer, i.e., Hanks buffer containing 25 mM glucose and 10 mM HEPES (pH 7.4). The assay buffer was then replaced with the assay buffer containing the test compound. [^3H]-alanine (brand name: NET-348, Daiich Pure chemical) or [^3H]-leucine (brand name: NET-460, Daiich Pure chemical) or [^3H]-phenylalanine (brand name: MT903, MORAVEK) or [^3H]-methionine (brand name: MT862, MORAVEK) or [^3H]-lysine (brand name: MT909, MORAVEK) or [^3H]-choline (brand name: TRK593, Amersham Biosciences) at a final concentration of 8 μM was added thereto and incubated at 37° C. for 60 minutes so that they were taken into Cos 7 cells. […] Then the radioactivity was measured using the liquid scintillation counter. The inhibitory rate (%) was calculated from the radioactivity in the control in which no test compound had been used and the radioactivity when the test compound at the certain concentration had been used, and the concentration of the compound which inhibited 50% of the transporter activity was calculated.

SMILES: CCCCC1(CCCC)CS(=O)(=O)c2ccc(N(C)C)cc2C(c2cccc(NC(=S)CCCCC[N+]34CCC(CC3)CC4)c2)N1.[Br-] (stereo not drawn) [EXAMPLE 1, 1-{5-[3-(3,3-dibutyl-7-dimethylamino-1,1-dioxo-2,3,4,5-tetrahydro-1,4-benzothiazepine-5-yl)phenylthiocarbamoyl]pentyl}-1-azoniabicyclo[2.2.2]octane bromide]
- MITOTIC CELLS IN LIVER (AVERAGE ± STANDARD ERROR, n = 8) ([1]; 0.1 mg/kg per administration): 36 ± 13
- MITOTIC CELLS IN LIVER (AVERAGE ± STANDARD ERROR, n = 8) ([1]; 1 mg/kg per administration): 28 ± 7
- ALT (rats dosed bile acid; control group 82 ± 17): 53 ± 6 IU/L
- AST (rats dosed bile acid; control group 157 ± 35): 100 ± 2 IU/L
- ALP (rats dosed bile acid; control group 593 ± 77): 453 ± 50 IU/L
- IC50 (ALANINE TRANSPORTER): 33 µM
